How the values were obtained:
[1] = target: JAK1 (Homo sapiens (Human), UniProt P23458); assay: Biochemical JAK kinase assay (LanthaScreen), JAK1; details: for Ki: read-out: JAK1 pKi (converted)
Procedure, shortened: (§1)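 LanthaScreen format: phospho-STAT1 (pTyr701) detected with 2 nM Tb antibody after 10 mM EDTA quench. Kinase step used Km-level ATP and 200 nM STAT1 peptide, 1 h at ambient after 1 h pre-incubation. Inhibition fitted to IC50, reported as pKi.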

[2] = target: JAK2 (Homo sapiens (Human), UniProt O60674); assay: Biochemical JAK kinase assay (LanthaScreen), JAK2; details: for Ki: read-out: JAK2 pKi (converted)
Sequence of JAK2 (O60674 whole entry): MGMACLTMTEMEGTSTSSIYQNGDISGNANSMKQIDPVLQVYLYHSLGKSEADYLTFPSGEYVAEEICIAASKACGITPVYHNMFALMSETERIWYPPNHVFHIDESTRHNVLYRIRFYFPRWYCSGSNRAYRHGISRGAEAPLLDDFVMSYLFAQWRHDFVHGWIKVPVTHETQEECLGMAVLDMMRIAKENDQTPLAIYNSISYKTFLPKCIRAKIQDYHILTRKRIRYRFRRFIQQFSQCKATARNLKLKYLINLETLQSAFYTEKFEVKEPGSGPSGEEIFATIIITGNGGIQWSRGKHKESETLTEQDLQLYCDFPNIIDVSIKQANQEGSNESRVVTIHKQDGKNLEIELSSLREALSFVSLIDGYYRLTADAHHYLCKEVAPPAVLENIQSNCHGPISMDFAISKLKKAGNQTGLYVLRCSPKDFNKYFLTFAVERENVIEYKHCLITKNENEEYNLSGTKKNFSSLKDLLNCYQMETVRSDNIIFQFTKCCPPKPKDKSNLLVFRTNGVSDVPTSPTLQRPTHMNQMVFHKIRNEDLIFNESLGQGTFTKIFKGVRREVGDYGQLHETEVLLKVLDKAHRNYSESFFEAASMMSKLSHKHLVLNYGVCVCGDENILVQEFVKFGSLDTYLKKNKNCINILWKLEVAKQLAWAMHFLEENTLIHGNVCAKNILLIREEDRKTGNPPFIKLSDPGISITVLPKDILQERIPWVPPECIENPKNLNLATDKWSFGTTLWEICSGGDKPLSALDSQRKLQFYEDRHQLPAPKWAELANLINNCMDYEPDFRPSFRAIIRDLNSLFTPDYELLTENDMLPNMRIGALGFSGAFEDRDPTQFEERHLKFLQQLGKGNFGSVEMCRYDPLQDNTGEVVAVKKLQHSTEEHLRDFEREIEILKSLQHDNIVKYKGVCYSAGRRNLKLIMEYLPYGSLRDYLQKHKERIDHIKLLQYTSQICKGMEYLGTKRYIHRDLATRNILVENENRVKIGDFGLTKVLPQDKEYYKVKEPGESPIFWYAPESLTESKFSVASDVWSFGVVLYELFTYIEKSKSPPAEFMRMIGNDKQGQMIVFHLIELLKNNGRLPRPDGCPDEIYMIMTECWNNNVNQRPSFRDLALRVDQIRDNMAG
Procedure, shortened: as §1

[3] = test system: IL-13 induced STAT6 phosphorylation in BEAS-2B human lung epithelial cells; assay: Cellular JAKI potency assay (BEAS-2B); type: cell-based; details: Homo sapiens, BEAS-2B, BEAS-2B cells, read-out: BEAS2B pIC50 (converted)
Procedure, shortened: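 BEAS-2B cells were preincubated with compound (0.1% DMSO) in HBSS/HEPES/BSA for 1 h at 37 °C, then stimulated with IL-13 (80 ng/mL before addition) for 30 min. After lysis, pSTAT6 (Tyr641) was quantified by AlphaLISA SureFire; IC50 from a 4-parameter fit of percent inhibition, reported as pIC50.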

Sequence of JAK1 (P23458 whole entry): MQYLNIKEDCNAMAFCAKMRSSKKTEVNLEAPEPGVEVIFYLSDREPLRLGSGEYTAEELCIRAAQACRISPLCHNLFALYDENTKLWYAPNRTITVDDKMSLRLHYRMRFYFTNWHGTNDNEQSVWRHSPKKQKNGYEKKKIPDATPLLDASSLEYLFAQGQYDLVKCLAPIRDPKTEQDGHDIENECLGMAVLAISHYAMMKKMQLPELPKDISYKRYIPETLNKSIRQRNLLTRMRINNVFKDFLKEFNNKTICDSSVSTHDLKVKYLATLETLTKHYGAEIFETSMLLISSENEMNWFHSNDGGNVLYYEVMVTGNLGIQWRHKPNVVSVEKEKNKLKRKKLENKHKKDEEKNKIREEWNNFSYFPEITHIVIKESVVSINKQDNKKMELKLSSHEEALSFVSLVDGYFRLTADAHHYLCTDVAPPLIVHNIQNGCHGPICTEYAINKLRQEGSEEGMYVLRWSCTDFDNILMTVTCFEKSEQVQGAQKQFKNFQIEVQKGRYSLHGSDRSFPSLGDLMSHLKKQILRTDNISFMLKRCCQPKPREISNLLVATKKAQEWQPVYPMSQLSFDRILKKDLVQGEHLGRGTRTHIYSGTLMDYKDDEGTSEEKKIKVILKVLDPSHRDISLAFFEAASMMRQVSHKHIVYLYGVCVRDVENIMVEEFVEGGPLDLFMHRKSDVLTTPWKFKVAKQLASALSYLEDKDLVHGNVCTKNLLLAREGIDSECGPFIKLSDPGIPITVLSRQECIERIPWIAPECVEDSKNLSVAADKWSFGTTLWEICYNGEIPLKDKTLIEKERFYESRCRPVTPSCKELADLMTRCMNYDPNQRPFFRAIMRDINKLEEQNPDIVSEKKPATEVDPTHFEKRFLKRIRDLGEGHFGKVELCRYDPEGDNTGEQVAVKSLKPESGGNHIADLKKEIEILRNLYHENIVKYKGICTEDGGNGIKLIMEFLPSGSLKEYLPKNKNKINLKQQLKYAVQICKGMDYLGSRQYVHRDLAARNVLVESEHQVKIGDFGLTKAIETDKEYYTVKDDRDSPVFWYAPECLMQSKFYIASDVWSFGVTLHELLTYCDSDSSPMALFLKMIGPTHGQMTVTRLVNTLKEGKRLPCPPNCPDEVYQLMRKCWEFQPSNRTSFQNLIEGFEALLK

| Compound | Ki [1] | Ki [2] | IC50 [3] | JAK2 pKi [2] | JAK1 pKi [1] |
| --- | --- | --- | --- | --- | --- |
| CCc1cc(O)ccc1-c1ccc2c(-c3nc(C4=C(C)CCNC4)c[nH]3)n[nH]c2c1 [Example 232] | 0.1 to 1 nM | 0.1 to 1 nM | 3.16 to 10 nM | – | – |
| CCc1cc(O)ccc1-c1ccc2c(-c3nc(C4=CCCNC4C)c[nH]3)n[nH]c2c1 (stereo not drawn) [Example 233] | 0.1 to 1 nM | 0.1 to 1 nM | 10 to 31.6 nM | – | – |
| CCc1cc(O)ccc1-c1ccc2c(-c3nc(C4=CCCNC4C)c[nH]3)n[nH]c2c1F (stereo not drawn) [Example 237] | 0.1 to 1 nM | – | 10 to 31.6 nM | A (A represents a pKi value ≥10 (Ki≤0.1 nM)) | – |
| CCc1cc(O)ccc1-c1ccc2c(-c3nc(C4=C[C@H](CO)NC4)c[nH]3)n[nH]c2c1 [Example 239] | 0.1 to 1 nM | 0.1 to 1 nM | 31.6 to 100 nM | – | – |
| CCc1cc(O)ccc1-c1ccc2c(-c3nc(C4=C[C@@H](CO)NC4)c[nH]3)n[nH]c2c1 [Example 240] | 0.1 to 1 nM | 0.1 to 1 nM | 31.6 to 100 nM | – | – |
| CCc1cc(O)ccc1-c1ccc2c(-c3nc(C4=C[C@@H](COC)NC4)c[nH]3)n[nH]c2c1 [Example 242] | – | 0.1 to 1 nM | 3.16 to 10 nM | – | A (A represents a pKi value ≥10 (Ki≤0.1 nM)) |
| CCc1cc(O)ccc1-c1ccc2c(-c3nc(C4=C[C@H](CC#N)NC4)c[nH]3)n[nH]c2c1 [Example 243] | – | – | 3.16 to 10 nM | A (A represents a pKi value ≥10 (Ki≤0.1 nM)) | A (A represents a pKi value ≥10 (Ki≤0.1 nM)) |
| CCc1cc(O)ccc1-c1ccc2c(-c3nc(C4=C[C@H](CC#N)NC4)c[nH]3)n[nH]c2c1F [Example 247] | 0.1 to 1 nM | 0.1 to 1 nM | 10 to 31.6 nM | – | – |
| CCc1cc(O)ccc1-c1ccc2c(-c3nc(C4=C[C@@H](CC#N)NC4)c[nH]3)n[nH]c2c1 [Example 248] | 0.1 to 1 nM | 0.1 to 1 nM | 10 to 31.6 nM | – | – |
| CCc1cc(O)ccc1-c1ccc2c(-c3nc(C4=C[C@@H](CC#N)NC4)c[nH]3)n[nH]c2c1F [Example 249] | 0.1 to 1 nM | 0.1 to 1 nM | 10 to 31.6 nM | – | – |
| CCc1cc(O)ccc1-c1ccc2c(-c3nc(C4=C[C@H](C(=O)OC)NC4)c[nH]3)n[nH]c2c1F [Example 250] | 0.1 to 1 nM | 0.1 to 1 nM | 31.6 to 100 nM | – | – |
| CCc1cc(O)ccc1-c1ccc2c(-c3nc(C4=C[C@@H](C(=O)OC)NC4)c[nH]3)n[nH]c2c1F [Example 251] | 0.1 to 1 nM | 0.1 to 1 nM | 10 to 31.6 nM | – | – |
| CCc1cc(O)ccc1-c1ccc2c(-c3nc(C4=C[C@@H](C(=O)N5CC(N(C)C)C5)NC4)c[nH]3)n[nH]c2c1F [Example 252] | 0.1 to 1 nM | 0.1 to 1 nM | 100 to 316 nM | – | – |
| CCc1cc(O)ccc1-c1ccc2c(-c3nc(C4=C[C@H](CC(=O)OC)NC4)c[nH]3)n[nH]c2c1F [Example 253] | – | – | 3.16 to 10 nM | A (A represents a pKi value ≥10 (Ki≤0.1 nM)) | A (A represents a pKi value ≥10 (Ki≤0.1 nM)) |
| CCc1cc(O)ccc1-c1ccc2c(-c3nc(C4=C[C@@H](CC(=O)OC)NC4)c[nH]3)n[nH]c2c1F [Example 254] | 0.1 to 1 nM | 0.1 to 1 nM | 10 to 31.6 nM | – | – |
| CCc1cc(O)ccc1-c1ccc2c(-c3nc(C4=C[C@@H](CC(=O)N(C)C)NC4)c[nH]3)n[nH]c2c1F [Example 256] | – | – | 31.6 to 100 nM | A (A represents a pKi value ≥10 (Ki≤0.1 nM)) | A (A represents a pKi value ≥10 (Ki≤0.1 nM)) |
| CCc1cc(O)ccc1-c1ccc2c(-c3nc(C4=CC[C@H](C)N(CCO)C4)c[nH]3)n[nH]c2c1F [Example 257] | 0.1 to 1 nM | 0.1 to 1 nM | 10 to 31.6 nM | – | – |
| CCc1cc(O)ccc1-c1ccc2c(-c3nc(C4=CC[C@H](C)N(CCCO)C4)c[nH]3)n[nH]c2c1F [Example 258] | 0.1 to 1 nM | 0.1 to 1 nM | 10 to 31.6 nM | – | – |
| CCc1cc(O)ccc1-c1ccc2c(-c3nc(C4=CC[C@H](C)N(C(C)CO)C4)c[nH]3)n[nH]c2c1F (stereo partly drawn) [Example 259] | 0.1 to 1 nM | 0.1 to 1 nM | 10 to 31.6 nM | – | – |
| CCc1cc(O)ccc1-c1ccc2c(-c3nc(C4=CC[C@H](C)N(CCC(C)(C)O)C4)c[nH]3)n[nH]c2c1F [Example 260] | 0.1 to 1 nM | 0.1 to 1 nM | 10 to 31.6 nM | – | – |
| CCc1cc(O)ccc1-c1ccc2c(-c3nc(C4=CC[C@H](C)N(C[C@H](C)CO)C4)c[nH]3)n[nH]c2c1F [Example 261] | 0.1 to 1 nM | 0.1 to 1 nM | 10 to 31.6 nM | – | – |
| CCc1cc(O)ccc1-c1ccc2c(-c3nc(C4=CC[C@H](C)N(C[C@@H](C)CO)C4)c[nH]3)n[nH]c2c1F [Example 262] | 0.1 to 1 nM | 0.1 to 1 nM | 10 to 31.6 nM | – | – |

| Compound | Ki [1] | Ki [2] | IC50 [3] | JAK2 pKi [2] | JAK1 pKi [1] |
| --- | --- | --- | --- | --- | --- |
| CCc1cc(O)ccc1-c1ccc2c(-c3nc(C4=C[C@H](CO)N(CCO)C4)c[nH]3)n[nH]c2c1F [Example 263] | – | – | 10 to 31.6 nM | A (A represents a pKi value ≥10 (Ki≤0.1 nM)) | A (A represents a pKi value ≥10 (Ki≤0.1 nM)) |
| CCc1cc(O)ccc1-c1ccc2c(-c3nc(C4=C[C@H](CO)N(CCCO)C4)c[nH]3)n[nH]c2c1F [Example 264] | 0.1 to 1 nM | – | 10 to 31.6 nM | A (A represents a pKi value ≥10 (Ki≤0.1 nM)) | – |
| CCc1cc(O)ccc1-c1ccc2c(-c3nc(C4=CC[C@H](C)N([C@H]5C[C@@H](O)C5)C4)c[nH]3)n[nH]c2c1F [Example 265] | 0.1 to 1 nM | 0.1 to 1 nM | 3.16 to 10 nM | – | – |
| CCc1cc(O)ccc1-c1ccc2c(-c3nc(C4=CC[C@H](C)N(CCCOC)C4)c[nH]3)n[nH]c2c1F [Example 266] | 0.1 to 1 nM | 0.1 to 1 nM | 10 to 31.6 nM | – | – |
| CCc1cc(O)ccc1-c1ccc2c(-c3nc(C4=CC[C@H](C)N(CC5COC5)C4)c[nH]3)n[nH]c2c1F [Example 267] | 0.1 to 1 nM | 0.1 to 1 nM | 10 to 31.6 nM | – | – |
| CCc1cc(O)ccc1-c1ccc2c(-c3nc(C4=CC[C@H](C)N(C5CCOCC5)C4)c[nH]3)n[nH]c2c1F [Example 268] | 0.1 to 1 nM | 0.1 to 1 nM | 10 to 31.6 nM | – | – |
| CCc1cc(O)ccc1-c1ccc2c(-c3nc(C4=CC[C@H](C)N(C[C@H]5COCCN5)C4)c[nH]3)n[nH]c2c1F [Example 269] | 0.1 to 1 nM | 0.1 to 1 nM | 31.6 to 100 nM | – | – |
| CCc1cc(O)ccc1-c1ccc2c(-c3nc(C4=CC[C@H](C)N(CCN5CCOCC5)C4)c[nH]3)n[nH]c2c1F [Example 270] | 0.1 to 1 nM | 0.1 to 1 nM | 10 to 31.6 nM | – | – |
| CCc1cc(O)ccc1-c1ccc2c(-c3nc(C4=CC[C@H](C)N(CCN5CCCC5=O)C4)c[nH]3)n[nH]c2c1F [Example 271] | 0.1 to 1 nM | 0.1 to 1 nM | 10 to 31.6 nM | – | – |
| CCc1cc(O)ccc1-c1ccc2c(-c3nc(C4=C[C@H](CO)N(CCCOC)C4)c[nH]3)n[nH]c2c1F [Example 272] | – | – | 3.16 to 10 nM | A (A represents a pKi value ≥10 (Ki≤0.1 nM)) | A (A represents a pKi value ≥10 (Ki≤0.1 nM)) |
| CCc1cc(O)ccc1-c1ccc2c(-c3nc(C4=C[C@H](CO)N(C5COC5)C4)c[nH]3)n[nH]c2c1F [Example 273] | 0.1 to 1 nM | – | 10 to 31.6 nM | A (A represents a pKi value ≥10 (Ki≤0.1 nM)) | – |
| CCc1cc(O)ccc1-c1ccc2c(-c3nc(C4=C[C@H](CO)N(C5CCOCC5)C4)c[nH]3)n[nH]c2c1F [Example 274] | – | – | 10 to 31.6 nM | A (A represents a pKi value ≥10 (Ki≤0.1 nM)) | A (A represents a pKi value ≥10 (Ki≤0.1 nM)) |
| CCc1cc(O)ccc1-c1ccc2c(-c3nc(C4=CC[C@H](C)N(CC(=O)NC)C4)c[nH]3)n[nH]c2c1F [Example 275] | 0.1 to 1 nM | 0.1 to 1 nM | 10 to 31.6 nM | – | – |
| CCc1cc(O)ccc1-c1ccc2c(-c3nc(C4=CC[C@H](C)N(CCS(C)(=O)=O)C4)c[nH]3)n[nH]c2c1F [Example 276] | 1 to 10 nM | 0.1 to 1 nM | 31.6 to 100 nM | – | – |
| CCc1cc(O)ccc1-c1ccc2c(-c3nc(C4=CC[C@H](C)N(CCS(=O)(=O)NC)C4)c[nH]3)n[nH]c2c1F [Example 277] | 1 to 10 nM | 0.1 to 1 nM | 31.6 to 100 nM | – | – |
| CCc1cc(O)ccc1-c1ccc2c(-c3nc(C4=CC[C@H](C)N(CCNS(C)(=O)=O)C4)c[nH]3)n[nH]c2c1F [Example 278] | 0.1 to 1 nM | 0.1 to 1 nM | 10 to 31.6 nM | – | – |
| CCc1cc(O)ccc1-c1ccc2c(-c3nc(C4=CCN(CC)C4)c[nH]3)n[nH]c2c1F [Example 283] | – | – | 3.16 to 10 nM | A (A represents a pKi value ≥10 (Ki≤0.1 nM)) | A (A represents a pKi value ≥10 (Ki≤0.1 nM)) |
| CCc1cc(O)c(F)cc1-c1ccc2c(-c3nc(C4=CCNCC4)c[nH]3)n[nH]c2c1 [Example 284] | – | – | 3.16 to 10 nM | A (A represents a pKi value ≥10 (Ki≤0.1 nM)) | A (A represents a pKi value ≥10 (Ki≤0.1 nM)) |
| CCc1cc(O)c(F)cc1-c1ccc2c(-c3nc(C4=CCNC4)c[nH]3)n[nH]c2c1 [Example 285] | – | – | 3.16 to 10 nM | A (A represents a pKi value ≥10 (Ki≤0.1 nM)) | A (A represents a pKi value ≥10 (Ki≤0.1 nM)) |
| CCOC(=O)C[C@H]1C=C(c2c[nH]c(-c3n[nH]c4c(F)c(-c5ccc(O)cc5CC)ccc34)n2)CN1 [Example 286] | 0.1 to 1 nM | 0.1 to 1 nM | 3.16 to 10 nM | – | – |
| CCc1cc(O)ccc1-c1ccc2c(-c3nc(C4=CCN([C@H]5CC[C@@H](O)CC5)C4)c[nH]3)n[nH]c2c1 [Example 287] | – | – | 3.16 to 10 nM | A (A represents a pKi value ≥10 (Ki≤0.1 nM)) | A (A represents a pKi value ≥10 (Ki≤0.1 nM)) |

— US20240092758A1, “IMIDAZOLO INDAZOLE COMPOUNDS AS JAK INHIBITORS” (Theravance Biopharma R&D IP, LLC, priority 2021, published 2024)
